Data from patent US20040077654A1, “Aryl piperidine and piperazine derivatives as inducers of ldl-receptor expression” (priority 2003, published 2004).

Tested on: not given
Assay: not given
Conditions: not given

| SMILES | melting point [°C] |
| --- | --- |
| CCOc1cc(C)ccc1C1CCN(CCCCNC(=O)c2ccc3oc(-c4ccc(Cl)cc4)cc3c2)CC1 [Example 30, 2-(4-Chloro-phenyl)-benzofuran-5-carboxylic acid {4-[4-(2-ethoxy-4-methylphenyl)-piperidin-1-yl]-butyl}-amide] | 145 to 158 |
| CCOc1cc(C)ccc1C1CCN(CCCCNC(=O)c2ccc(NC(=O)c3ccc(Cl)cc3)cc2)CC1 [Example 2, 4-(4-chloro-benzoylamino)-N-{4-[4-(2-ethoxy-4-methyl-phenyl)-piperidin-1-yl]-butyl}-benzamide] | 254 |
| CCOc1cc(C)ccc1C1CCN(CCCCNC(=O)c2ccc(C=Cc3ccc(C(F)(F)F)cc3)cc2)CC1 [Example 33, N-{4-[4-(2-Ethoxy-4-methyl-phenyl)-piperidin-1-yl]-butyl}-4-[2-(4-trifluoromethylphenyl)-vinyl]-benzamide] | 210 |
| COc1cc(C(C)C)ccc1C1CCN(CCCCNC(=O)c2ccc(NC(=O)c3ccc(Cl)cc3)cc2)CC1 [Example 5, 4-(4-chloro-benzoylamino)-N-{4-[4-(4-isopropyl-2-methoxy-phenyl)-piperidin-1-yl]-butyl}-benzamide] | 241 |
| CCOc1cc(C)ccc1C1CCN(CCCCNC(=O)c2ccc3oc(-c4ccc(C(F)(F)F)cc4)cc3c2)CC1 [Example 29, 2-(4-Trifluoromethyl-phenyl)-benzofuran-5-carboxylic Acid {4-[4-(2-ethoxy-4-methyl-phenyl)-piperidin-1-yl]-butyl}-amide] | 200 |
| O=C(NCCCCN1CCC(c2csc3ccccc23)CC1)c1ccc(-c2ccc(C(F)(F)F)cc2)cc1 [Example 16, 4′-Trifluoromethyl-biphenyl-4-carboxylic acid [4-(4-benzo[b]thiophen-3-yl-piperidin-1-yl)-butyl]-amide] | 264 |
| CCOc1ccc(CC2CCN(CCCCNC(=O)c3ccc(-c4ccc(C(F)(F)F)cc4)cc3)CC2)c(OCC)c1 [Example 38, 4′-trifluoromethyl-biphenyl-4-carboxylic acid {4-[4-(2,4-diethoxy-benzyl)-piperidin-1-yl]-butyl}amide] | 136 to 137 |
| CCOc1cc(C(C)C)ccc1C1CCN(CCCCNC(=O)c2ccc(NC(=O)c3ccc(Cl)cc3)cc2)CC1 [Example 6, 4-(4-chloro-benzoylamino)-N-{4-[4-(2-ethoxy-4-isopropyl-phenyl)-piperidin-1-yl]-butyl}-benzamide] | 242 |
| CSc1ccccc1C1CCN(CCCCNC(=O)c2ccc(-c3ccc(C(F)(F)F)cc3)cc2)CC1 [Example 13, 4′-Trifluoromethyl-biphenyl-4-carboxylic acid {4[4-(2-methylsulfanyl-phenyl)-piperidin-1-yl]-butyl}-amide] | 191 to 192 |
| O=C(NCCCCN1CCC(c2ccc3c(c2)CCCC3)CC1)c1ccc(NC(=O)c2ccc(Cl)cc2)cc1 [Example 10, 4-(4-chloro-benzoylamino)-N-{4-[4-(5,6,7,8-tetrahydro-naphthalen-2-yl)-piperidin-1-yl]-butyl}-benzamide] | 285 |
| CCc1ccc(C2CCN(CCCCNC(=O)c3ccc(NC(=O)c4ccc(Cl)cc4)cc3)CC2)c(OC)c1 [Example 4, 4-(4-chloro-benzoylamino)-N-{4-[4-(4-ethyl-2-methoxy-phenyl)-piperidin-1-yl]-butyl}-benzamide] | 235 |
| Cn1cc(C2CCN(CCCCNC(=O)c3ccc(-c4ccc(C#N)cc4)cc3)CC2)c2ccccc21 [Example 40, 4′-Cyano-biphenyl-4-carboxylic acid {4-[4-(1-methyl-1H-indol-3-yl)-piperidin-1-yl]-butyl}-amide] | 180 |
| O=C(NCCCCN1CCC(c2ccc3c(c2)OCO3)CC1)c1ccc(NC(=O)c2ccc(Cl)cc2)cc1 [Example 8, 4-(4-chloro-benzoylamino)-N-[4-(4-benzo[1,3]dioxol-5-yl-piperidin-1-yl]-butyl}-benzamide] | 238 to 248 |
| CCOc1cc(CC)ccc1C1CCN(CCCCNC(=O)c2ccc(NC(=O)c3ccc(Cl)cc3)cc2)CC1 [Example 3, 4-(4-chloro-benzoylamino)-N-{4-[4-(2-ethoxy-4-ethyl-phenyl)-piperidin-1-yl]-butyl}-benzamide] | 250 |
| Cn1cc(C2CCN(CCCCNC(=O)c3ccc(-c4ccc(C(F)(F)F)cc4)cc3)CC2)c2ccccc21 [Example 14, 4′-Trifluoromethyl-biphenyl-4-carboxylic acid {4-[4-(1−methyl-1H-indol-3-yl)-piperidin-1-yl]-butyl}-amide] | 205 to 206 |
| O=C(NCCCCN1CCC(c2cccc3ccccc23)CC1)c1ccc(NC(=O)c2ccc(Cl)cc2)cc1 [Example 11, 4-(4-chloro-benzoylamino)-N-[4-(4-naphthalen-1-yl-piperidin-1-yl]-butyl}-benzamide] | 264 |
| COc1cc(C)ccc1N1CCN(CCCCNC(=O)c2ccc(NC(=O)c3ccc(Cl)cc3)cc2)CC1.Cl (hydrate or solvate) | 227 |
| COc1ccc(C2CCN(CCCCNC(=O)c3ccc(NC(=O)c4ccc(Cl)cc4)cc3)CC2)c(OC)c1.Cl | 238 |
| CCOc1cc(C)ccc1C1CCN(CCCCC(=O)Nc2ccc(-c3ccc(C(F)(F)F)cc3)cc2)CC1 [Example 24, 5-[4-(2-Ethoxy-4-methyl-phenyl)-piperidin-1-yl]-pentanoic acid (4′-trifluoromethyl-biphenyl-4-yl)-amide] | 178 |
| CCOc1cc(C)ccc1C1CCN(CCCCNS(=O)(=O)c2ccc(-c3ccc(C(F)(F)F)cc3)cc2)CC1.Cl | 188 to 190 |
| CCOc1cc(C)ccc1C1CCN(CCCCNC(=O)c2ccc(OCc3ccc(C(F)(F)F)cc3)cc2)CC1 [Example 34, N-{4-[4-(2-Ethoxy-4-methyl-phenyl)-piperidin-1-yl]-butyl}4-(4-trifluoromethyl-benzyloxy)-benzamide] | 180 to 182 |
| COc1cc(C(C)C)ccc1C1CCN(CCCCNC(=O)c2sc(-c3ccc(C(F)(F)F)cc3)nc2C)CC1 [Example 27, 4-Methyl-2-(4-trifluoromethyl-phenyl)-thiazole-5-carboxylic acid {4-[4-(4-isopropyl-2-methoxy-phenyl)-piperidin-1-yl]-butyl}-amide] | 170 |
| CCOc1cc(C)ccc1N(C1CCN(CCCCNC(=O)c2ccc(-c3ccc(C(F)(F)F)cc3)cc2)CC1)S(=O)(=O)c1ccccc1 [Example 20, 4′-Trifluoromethyl-biphenyl-4-carboxylic Acid (4-{4-[benzenesulfonyl-(2-ethoxy-4-methyl-phenyl)-amino]-piperidin-1-yl}butyl)-amide] | 110 |
| CCOc1cc(C)ccc1C1CCN(CCCCNC(=O)c2ccc3c(c2)cc(-c2ccc(Cl)cc2)n3C)CC1 [Example 28, 2-(4-Chloro-phenyl)-1-methyl-1H-indole-5-carboxylic Acid {4-[4-(2-ethoxy-4-methyl-phenyl)-piperidin-1-yl]-butyl}-amide] | 174 to 175 |
| O=C(NCCCCN1CCC(c2ccc3ccccc3c2)CC1)c1ccc(NC(=O)c2ccc(Cl)cc2)cc1 [Example 9, 4-(4-chloro-benzoylamino)-N-[4-(4-naphthalen-2-yl-piperidin-1-yl]-butyl}-benzamide] | 270 |
| CCOc1cc(C)ccc1NC1CCN(CCCCNC(=O)c2ccc(-c3ccc(C(F)(F)F)cc3)cc2)CC1 [Example 19, 4′-Trifluoromethyl-biphenyl-4-carboxylic acid {4-[4-(2-ethoxy-4-methyl-phenylamino)-piperidin-1-yl]-butyl}-amide] | 162 |

Tested on: LDL-r promoter
Assay: LDL-r promoter luciferase reporter gene assay in stably transfected HepG2 cells
Type: cell-based, human
Conditions: HepG2 cells with LDL-r promoter/luciferase construct; 24 hours incubation in RPMI with 2% lipoprotein-deficient serum; induction of luciferase activity; read-out: In vitro (IC50)
Method: The ability of the compounds of the invention to induce LDL-r expression by human hepatocytes in vitro is determined using a human hepatocarcinoma cell line, Hep G2, as a model system. A reporter gene assay using the LDL-R promotor in front of the Luciferase reporter gene is used as a primary screen.
HepG2 cells, stably transfected with a construct comprising the LDL-r promoter and the luciferase reporter gene, were seeded at 50.000 cells/well in 96 well plates. After 1 day, cells were incubated with compounds for 24 hours in RPMI medium containing 2% of lipoprotein-deficient serum. Compounds were tested from 10^−6M to 10^−9M. Cell lysates were prepared and the luciferase activity was measured by the luciferase assay system (Promega). Induction of luciferase activity was calculated taking untreated cells as control and ED50 of each compounds was determinated compared to the ED50 of an internal standart.

| SMILES | EC50 [µM] |
| --- | --- |
| COc1c(C2CCN(CCCCOc3ccc(-c4ccc(C#N)cc4)cc3)CC2)ccc2ccccc12 [Example 26, 4′-{4-[4-(1-Methoxy-naphtalen-2-yl)-piperidin-1-yl]-butoxy}-biphenyl-4-carbonitrile] | 0.001 |
| Cc1cc(C2CCN(CCCCNC(=O)c3ccc(-c4ccc(C(F)(F)F)cc4)cc3)CC2)c(C)cc1OCc1ccccn1 [Example 7] | 0.004 |
| O=C(NCCCCN1CCC(c2ccc3c(c2OCC2CC2)CCCC3)CC1)c1ccc2oc(-c3ccc(C(F)(F)F)nc3)cc2c1 [Example 32, 2-(6-Trifluoromethyl-pyridin-3-yl)-benzofuran-5-carboxylic acid {4-[4-(1-cyclopropylmethoxy-5,6,7,8-tetrahydronaphtalen-2-yl)-piperidin-1-yl]-butyl}-amide] | 0.013 |
| O=C(NCCCCN1CCC(c2ccc3c(c2OCC2CC2)CCCC3)CC1)c1ccc2oc(-c3ccc(Cl)c(Cl)c3)cc2c1 [Example 31, 2-(3,4-Dichloro-phenyl)-benzofuran-5-carboxylic acid {4-[4-(1-cyclopropylmethoxy-5,6,7,8-tetrahydro-naphtalen-2-yl)-piperidin-1-yl]-butyl}-amide] | 0.02 |

Same assay, conditions: Homo sapiens; HepG2 cells with LDL-r promoter/luciferase construct; 24 hours incubation in RPMI with 2% lipoprotein-deficient serum; induction of luciferase activity; read-out: In vitro (IC50)

| SMILES | EC50 [µM] |
| --- | --- |
| CCOc1cc(C)ccc1C1CCN(CCCCNC(=O)c2ccc(C=Cc3ccc(C(F)(F)F)cc3)cc2)CC1 [Example 33, N-{4-[4-(2-Ethoxy-4-methyl-phenyl)-piperidin-1-yl]-butyl}-4-[2-(4-trifluoromethylphenyl)-vinyl]-benzamide] | 0.03 |
| Cn1cc(C2CCN(CCCCNC(=O)c3ccc(-c4ccc(C#N)cc4)cc3)CC2)c2ccccc21 [Example 40, 4′-Cyano-biphenyl-4-carboxylic acid {4-[4-(1-methyl-1H-indol-3-yl)-piperidin-1-yl]-butyl}-amide] | 0.01 |
| CCOc1cc(C)ccc1N(C1CCN(CCCCNC(=O)c2ccc(-c3ccc(C(F)(F)F)cc3)cc2)CC1)S(=O)(=O)c1ccccc1 [Example 20, 4′-Trifluoromethyl-biphenyl-4-carboxylic Acid (4-{4-[benzenesulfonyl-(2-ethoxy-4-methyl-phenyl)-amino]-piperidin-1-yl}butyl)-amide] | 0.117 |
